The test system of one test is Colo-205 cells. Description: Calcium flux assay (FLIPR Calcium 5). The format is cell-based. Particulars: Homo sapiens, COLO 205, 0.6 h, FLIPR Calcium 5, measured over 36 minutes. The method, then: Compounds described herein induced ER stress by causing intracellular calcium flux. Calcium flux was measured in Colo-205 cells using the FLTPR® Calcium 5 Assay Kit according to manufacter's protocol (Molecular Devices, Cat. #R8186) on a FLIPR3 system (Molecular Devices). Calcium flux is measured over 36 minutes. The Colo-205 calcium flux assay data are summarized in Table 47: A<0.6 μM; 0.6 μM≤B<2.0 μM; 2.0 μM≤C<10.0 μM; D≥10.0 μM.
In general terms: Calcium flux is commonly read through the fluorescence of an indicator in the cells.

Test [1] concerns the target HEK293 membranes over-expressing WFS-1 (Homo sapiens (Human), UniProt O76024). Description: Radioligand displacement assay (tritiated Compound 136 probe). The format is binding. The following applies: displacement of tritiated Compound 136. The method, then: Cell pellets were re-suspended in 15 times packed cellular volume in 4° C. hypotonic lysis buffer (10 mM HEPES, pH 7.5 containing 1×Protease inhibitor, 0.5 mM EDTA and 2 mM DTT). Re-suspended cells were homogenized with 6-8 strokes in a dounce homogenizer kept on ice. Lysates were centrifuged at 500×G for 15 minutes at 4° C. without brake to decelerate rotor. Following centrifugation, remove the supernatant to a fresh tube and place on ice (Supernatant 1). Repeat the above steps on the lysed cell pellet using 0.5 the original volume of hypotonic lysis buffer and remove the 500× G supernatant (Supernatant 2) and combine with Supernatant 1. Transfer the combined supernatants to a 45-Ti ultracentrifuge tube and centrifuge at 100,000× G for 30 minutes. Following ultracentrifugation, carefully remove the supernatant and discard. Resuspend the 100,000× G pellet in cold resuspension buffer (10 mM HEPES, pH 7.5, 300 mM NaCl containing 1× Protease inhibitor, 1× EDTA and 2 mM DTT). Centrifuge sample at 500× G for 10 minutes with no brake and remove any cloudy, flocculent material. Resuspend pellet in resuspension buffer to approximately 2 mg/mL of protein concentration for use in radioligand binding assay and immunoblotting.
The binding affinities of compounds were determined by measuring the competitive displacement of a tritiated Compound 136 probe from purified HEK293 membranes over-expressing WFS-1. The data for the radioligand displacement assay are summarized in Table 47: A<0.06 μM; 0.06 μM≤B<0.6 μM; 0.6 μM≤C<3.0 μM; D≥3.0 μM.
The probe Kd was determined by titrating tritiated probe under the standard assay conditions plus and minus excess unlabeled probe and fitting the resulting data to a “One site—Total and nonspecific binding” model in Graphpad Prism, version 6.0, San Diego, CA, US. Initially, 0.25 μl of compound dissolved in DMSO at varying concentrations was dispensed to a 384 well plate. Membrane and probe were both prepared at 2× their final concentration in 1× assay buffer as described above. 25 μL of membrane was added to the wells and incubated for 10 minutes. 25 μL of diluted probe was then added to the wells. The assay was incubated for 90 minutes at room temperature. The entire assay volume was then transferred to Millipore GF/B 384-well plates pretreated with 15 μL 0.5% PEI. The filter plates were washed 3× with 75 μL 25 mM TRIS, ph7.5, 0.1% BSA and then dried overnight. Following addition of 45 μL UltimaGold scintillant, the samples were counted in a Perkin Elmer Topcount. The radioactivity remaining is a measure of bound probe. From the bound probe vs concentration of compound titration curve, the IC50 is determined by fitting the data to a standard 3 parameter IC50 model using either Graphpad Prism, version 6.0, San Diego, CA, US, or using GeneData Analyzer, Basel, Switzerland.
(In general: In a radioligand displacement assay an active substance lowers the binding of a labelled ligand.)

Test [2] has as its system β-catenin-TCF-mediated reporter transcription activity in Colo 205 cells. Nature of the test: Colo 205 reporter assay (TCF/LEF luciferase). The class given is cell-based. Particulars: Colo 205 TCF/LEF luciferase reporter, read-out: TCF reporter Colo205 IC50. The method in brief:
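Luciferase signal from a TCF/LEF-driven reporter, stably integrated in Colo 205 colon cancer cells, was measured 5 h after compound addition.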
(A reporter such as luciferase makes a cellular process visible.)

[3] abbreviates: Homo sapiens, COLO 205, 5 h, five hours after addition of compound.
Setting [4] is: Homo sapiens, COLO 205, 5 h, R-isomer at C2 (corresponding to C2 S-isomer), 5 h.
The mark [5] stands for this setting: five hours after addition of compound.

Like-named read-outs stand apart in the source and are kept apart here.

Data on 26 compounds can be found in US20230312587A1, “PTERIDINONE COMPOUNDS AND USES THEREOF” (Vertex Pharmaceutical Incorporated, priority 2018, published 2023).

What is called EC50 is the concentration needed to bring the measured effect to its halfway point. For orientation: IC50 means the concentration needed to halve the response being measured.

Chain of HEK293 membranes over-expressing WFS-1 (O76024 whole entry): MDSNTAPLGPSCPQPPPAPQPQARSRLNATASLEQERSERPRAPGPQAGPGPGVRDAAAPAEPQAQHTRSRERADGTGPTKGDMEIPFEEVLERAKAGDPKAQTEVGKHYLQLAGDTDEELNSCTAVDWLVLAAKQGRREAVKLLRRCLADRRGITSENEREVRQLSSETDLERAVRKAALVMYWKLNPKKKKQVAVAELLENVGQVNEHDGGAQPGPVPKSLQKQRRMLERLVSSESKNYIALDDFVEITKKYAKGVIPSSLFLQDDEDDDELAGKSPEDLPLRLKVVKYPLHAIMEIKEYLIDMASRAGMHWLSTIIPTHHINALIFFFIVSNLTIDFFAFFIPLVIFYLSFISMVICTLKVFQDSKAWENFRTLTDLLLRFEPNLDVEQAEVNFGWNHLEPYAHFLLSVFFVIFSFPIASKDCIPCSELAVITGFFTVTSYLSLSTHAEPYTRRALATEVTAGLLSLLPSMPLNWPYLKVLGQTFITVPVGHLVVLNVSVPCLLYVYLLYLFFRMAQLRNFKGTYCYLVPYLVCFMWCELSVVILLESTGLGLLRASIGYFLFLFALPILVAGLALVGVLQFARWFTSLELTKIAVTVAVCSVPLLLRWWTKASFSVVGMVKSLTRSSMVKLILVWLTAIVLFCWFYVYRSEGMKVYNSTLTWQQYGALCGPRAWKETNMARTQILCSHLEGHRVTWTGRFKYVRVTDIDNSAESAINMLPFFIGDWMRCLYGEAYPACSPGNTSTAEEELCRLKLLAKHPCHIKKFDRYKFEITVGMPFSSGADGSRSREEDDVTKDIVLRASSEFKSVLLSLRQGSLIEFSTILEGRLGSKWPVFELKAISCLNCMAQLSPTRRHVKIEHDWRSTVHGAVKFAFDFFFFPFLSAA

Turning to `Cc1nc(N[C@@H](C)c2cnn(Cc3ccc(C(F)(F)F)nc3)c2)nc2c1NC(=O)[C@H](C)N2C` [Compound 216, (7S)-4,7,8-Trimethyl-2-(((S)-1-(1-((6-(trifluoromethyl)pyridin-3-yl)methyl)-1H-pyrazol-4-yl)ethyl)amino)-7,8-dihydropteridin-6(5H)-one], in the test with Colo-205 cells, the EC50 was no less than 10000 nM. For the same compound, the IC50 in test [1] is no less than 3000 nM; in test [2] (setting [3]), no less than 5000 nM.

In the case of `Cc1nc(N[C@H]2C[C@H](Oc3cc(F)c(F)c(F)c3)C2)nc2c1NC(=O)[C@H](CO)N2C` [Compound 677, (S)-7-(hydroxymethyl)-4,8-dimethyl-2-((trans-3-(3,4,5-trifluorophenoxy)cyclobutyl)amino)-7,8-dihydropteridin-6(5H)-one], the IC50 is 60 to 600 nM in test [1] and less than 300 nM in test [2] (setting [3]). `CO[C@H](C)[C@H]1C(=O)Nc2c(C)nc(N[C@H]3C[C@H](Oc4ccc(C(F)(F)F)nc4)C3)nc2N1C` [Compound 684, (S)-7-((R)-1-methoxyethyl)-4,8-dimethyl-2-((trans-3-((6-(trifluoromethyl)pyridin-3-yl)oxy)cyclobutyl)amino)-7,8-dihydropteridin-6(5H)-one]: the EC50 in the test with Colo-205 cells is less than 600 nM. For the same compound, the IC50 in test [1] is less than 60 nM; in test [2] (setting [3]) it was less than 300 nM. On the same counts, the results for `Cc1nc(N[C@H]2C[C@H](Oc3ccc(C(F)(F)F)nc3)C2)nc2c1NC(=O)[C@H](C(C)C)N2C` [Compound 685, (S)-7-isopropyl-4,8-dimethyl-2-((trans-3-((6-(trifluoromethyl)pyridin-3-yl)oxy)cyclobutyl)amino)-7,8-dihydropteridin-6(5H)-one] are less than 600 nM, less than 60 nM and less than 300 nM.

Consider `CC[C@H]1C(=O)Nc2c(C)nc(N[C@H]3C[C@H](Oc4ccc(C(F)(F)F)nc4)C3)nc2N1C` [Compound 686, (S)-7-ethyl-4,8-dimethyl-2-((trans-3-((6-(trifluoromethyl)pyridin-3-yl)oxy)cyclobutyl)amino)-7,8-dihydropteridin-6(5H)-one], for which the EC50 with Colo-205 cells was less than 600 nM. The IC50 in test [1] is less than 60 nM; in test [2] (setting [3]), less than 300 nM. On the same counts, the results for `Cc1nc(N[C@H]2C[C@@H](CNc3cnc(C(F)(F)F)cn3)C2)nc2c1NC(=O)[C@H](C(C)C)N2C` [Compound 711, (S)-7-isopropyl-4,8-dimethyl-2-((cis-3-(((5-(trifluoromethyl)pyrazin-2-yl)amino)methyl)cyclobutyl)amino)-7,8-dihydropteridin-6(5H)-one] are less than 600 nM, less than 60 nM and less than 300 nM. On the same counts, the results for `Cc1nc(N[C@H]2C[C@@H](Nc3ccc(C#N)cn3)C2)nc2c1NC(=O)[C@H](C(C)C)N2C` [Compound 716, 6-((cis-3-(((S)-7-isopropyl-4,8-dimethyl-6-oxo-5,6,7,8-tetrahydropteridin-2-yl)amino)cyclobutyl)amino)nicotinonitrile] are 600 to 2000 nM, less than 60 nM and less than 300 nM. On the same counts, the results for `Cc1nc(N[C@H]2C[C@@H](Nc3ncc(C#N)cn3)C2)nc2c1NC(=O)[C@H](C(C)C)N2C` [Compound 717, 2-((cis-3-(((S)-7-isopropyl-4,8-dimethyl-6-oxo-5,6,7,8-tetrahydropteridin-2-yl)amino)cyclobutyl)amino)pyrimidine-5-carbonitrile] are 2000 to 10000 nM, 60 to 600 nM and 1000 to 5000 nM. As to `Cc1nc(N[C@H]2C[C@@H](Cn3nccc3C(F)(F)F)C2)nc2c1NC(=O)[C@H](COC(C)(C)C)N2C` [Compound 723, (S)-7-(tert-butoxymethyl)-4,8-dimethyl-2-((cis-3-((5-(trifluoromethyl)-1H-pyrazol-1-yl)methyl)cyclobutyl)amino)-7,8-dihydropteridin-6(5H)-one], the EC50 with Colo-205 cells was in the range of 600 to 2000 nM. The IC50 in test [1] is 60 to 600 nM; in test [2] (setting [3]), less than 300 nM. `CCC[C@@H]1C(=O)Nc2c(C)nc(NCc3cnn(Cc4ccc(C(F)(F)F)nc4)c3)nc2N1C` [Compound I-1638]: the IC50 in test [2] (setting [4]) was in the range of 1000 to 5000 nM. The same measure, in the same setting: with `Cc1nc(NCc2cnn(Cc3ccc(C(F)(F)F)nc3)c2)nc2c1NC(=O)[C@@H](C1CC1)N2C` [Compound I-1639] the figure was 1000 to 5000 nM. On the same count and under the same terms, with `CC(=O)N(Cc1cnn(Cc2ccc(C(F)(F)F)nc2)c1)c1nc(C)c2c(n1)N(C)[C@H](C)C(=O)N2` [Compound I-1640] the figure was no less than 5000 nM. On the same count and under the same terms, with `Cc1nc(NCc2cnn(Cc3ccc(F)nc3)c2)nc2c1NC(=O)[C@@H](C1CC1)N2C` [Compound I-1641] the figure was no less than 5000 nM; with `Cc1nc(NCc2cnn(Cc3ccc(OC(F)F)nc3)c2)nc2c1NC(=O)[C@@H](C(C)C)N2C` [Compound I-1642], 1000 to 5000 nM.

In the case of `Cc1cc(F)ncc1Cn1cc(CNc2nc(C)c3c(n2)N(C)[C@H](C(C)C)C(=O)N3)cn1` [Compound I-1643], the IC50 in test [2] (setting [4]) lay within 1000 to 5000 nM. The same measure, in the same setting: in the case of `Cc1nc(NCc2cnn(Cc3ccc(Cl)nc3)c2)nc2c1N(C)C(=O)[C@@H](CCO)N2C` [Compound I-1644] it was 1000 to 5000 nM.

Consider `Cc1nc(NCc2cnn(Cc3ccc(C(F)(F)F)nc3)c2)nc2c1NC(=O)[C@@H](CC(F)(F)F)N2C` [Compound I-1645], for which, in test [2] (setting [4]), the IC50 is 1000 to 5000 nM. On the same count and under the same terms, with `CC[C@@H]1C(=O)Nc2cnc(NCc3cnn(Cc4ccc(C(F)(F)F)nc4)c3)nc2N1C(C)C` [Compound I-1646] the figure was no less than 5000 nM; with `COCC[C@@H]1C(=O)Nc2c(C)nc(NCc3cnn(Cc4ccc(C(F)(F)F)nc4)c3)nc2N1C` [Compound I-1647], 1000 to 5000 nM; with `COCC[C@@H]1C(=O)Nc2c(C)nc(NCc3cnn(Cc4cc(C(F)(F)F)nn4C)c3)nc2N1C` [Compound I-1648], no less than 5000 nM. Same read-out and setting: with `Cc1nc(NCc2cnn(Cc3ccnc(C#N)c3)c2)nc2c1NC(=O)[C@@H](C)N2C` [Compound I-1649] the figure was no less than 5000 nM; with `Cc1nc(N[C@H]2C[C@H](Oc3cc(F)c(F)c(F)c3)C2)nc2c1NC(=O)[C@@H](CO)N2C` [Compound I-1650], 1000 to 5000 nM. Turning to “(7R)-5,7,8-triethyl-7-methyl-2-(((1-(3,4,5-trifluorobenzyl)-1H-pyrazol-4-yl)methyl)amino)-7,8-dihydropteridin-6(5H)-one [Compound 235]”, the IC50 in test [2] (setting [5]) is less than 300 nM. Same read-out and setting: in the case of “(7S)-4,5,7,8-tetramethyl-2-((trans-3-(3,4,5-trifluorophenoxy)cyclopentyl)amino)-7,8-dihydropteridin-6(5H)-one [Compound 269]” it was less than 300 nM.

Take “(7S)-7-(2-hydroxyethyl)-4-methyl-2-(((1-((6-(trifluoromethyl)pyridin-3-yl)methyl)-1H-pyrazol-4-yl)methyl)amino)-7,8-dihydropteridin-6(5H)-one [Compound 440]”: the IC50 in test [2] (setting [5]) was less than 300 nM.

As to “(S)-7-((S)-1-(tert-butoxy)ethyl)-4,8-dimethyl-2-(((1-(3,4,5-trifluorobenzyl)-1H-pyrazol-4-yl)methyl)amino)-7,8-dihydropteridin-6(5H)-one [Compound 747]”, the IC50 in test [2] (setting [5]) was in the range of 300 to 1000 nM.
